The values below come from patent publication US20240409585A1, “MACROCYCLIC IMMUNOMODULATORS” (priority 2021, published 2024).

Bridge positions count the residues as written; N and C are the ends. Square brackets hold non-standard residues; d marks the D form. Peptide text beside a SMILES is read from it. * marks the point of attachment. ξ: configuration not given here. Phe(4-COOH) = N[C@@H](Cc1ccc(C(=O)O)cc1)C(=O)O; Bip = N[C@@H](Cc1ccc(-c2ccccc2)cc1)C(=O)O; Phe(3-CN) = N#Cc1cccc(C[C@H](N)C(=O)O)c1; Phe(3-Me) = Cc1cccc(C[C@H](N)C(=O)O)c1; Bta = N[C@@H](Cc1csc2ccccc12)C(=O)O; Val(3-OH) = CC(C)(O)[C@H](N)C(=O)O; 3Pal = N[C@@H](Cc1cccnc1)C(=O)O; 4Pal = N[C@@H](Cc1ccncc1)C(=O)O; 3Thi = N[C@@H](Cc1ccsc1)C(=O)O; Cha = N[C@@H](CC1CCCCC1)C(=O)O; Cit = NC(=O)NCCC[C@H](N)C(=O)O; Ile(3ξ) = CCC(C)[C@H](N)C(=O)O; Thr(3ξ) = CC(O)[C@H](N)C(=O)O; dPip = O=C(O)[C@H]1CCCCN1; Carboxymethyl = O=C(O)C*; NMeA = CN[C@@H](C)C(=O)O; Dab = NCC[C@H](N)C(=O)O; Nva = CCC[C@H](N)C(=O)O; Dap = NC[C@H](N)C(=O)O; Aib = CC(C)(N)C(=O)O; NH(CH2)3NH2 = NCCCN*; ξC = NC(CS)C(=O)O; Acm = CC(=O)NC*

The target of this experiment is T1, PE-labeled human PD-L1-Ig binding to Jurkat cell line over-expressing human PD-1 (Jurkat-PD-1) (Homo sapiens, UniProt Q15116).
T1 construct: expressed in transfected cells; host or cells: Jurkat
T1 sequence (Q15116 25-288): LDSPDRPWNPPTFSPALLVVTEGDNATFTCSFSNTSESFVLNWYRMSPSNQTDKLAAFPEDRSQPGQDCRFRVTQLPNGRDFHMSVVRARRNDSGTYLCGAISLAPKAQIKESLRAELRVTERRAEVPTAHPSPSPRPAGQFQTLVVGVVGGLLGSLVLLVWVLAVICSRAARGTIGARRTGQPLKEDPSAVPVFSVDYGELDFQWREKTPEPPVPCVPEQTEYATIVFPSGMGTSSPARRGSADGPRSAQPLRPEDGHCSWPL
As to the kind of experiment: Jurkat-PD-1 Cell Binding High-Content Screening Assay (CBA): Method 1. The note with it: Jurkat-hPD-1 cells, PE-labeled PD-L1-Ig 20 nM final; read-out: Jurkat HPDL1 PD1 IC50 (uM) (Method 1).
For orientation: IC50 means the concentration that inhibits the measured activity by half. Regarding `CC(=O)NCSC[C@@H]1NC(=O)[C@H](Cc2cccc(C)c2)NC(=O)[C@H](CC(=O)O)NC(=O)[C@H](Cc2ccncc2)NC(=O)[C@H](Cc2ccc(OCC(=O)O)cc2)NC(=O)CSCC(C(=O)NCC(N)=O)NC(=O)[C@H](CO)NC(=O)[C@H](C(C)C)NC(=O)[C@H](CC(C)C)NC(=O)[C@H](CC(N)=O)NC(=O)[C@@H](CC(C)C)NC(=O)[C@H](C)N(C)C(=O)[C@H](CSCNC(C)=O)NC(=O)[C@H](Cc2ccc(-c3ccccc3)cc2)NC1=O` (stereo partly drawn) [Compound 1888] ({CH2CO}-Y(Carboxymethyl)[4Pal]D[Phe(3-Me)]C(Acm)[Bip]C(Acm)[NMeA][dL]NLVS[ξC]G-NH2; thioether N-14), the IC50 was 0.2 µM. As for `CC(C)C[C@@H]1NC(=O)[C@H](CCN)NC(=O)[C@@H](CC(C)C)NC(=O)[C@H](C)N(C)C(=O)[C@H](Cc2cnc[nH]2)NC(=O)[C@H](Cc2ccc(-c3ccccc3)cc2)NC(=O)[C@H](C(C)C)NC(=O)[C@H](Cc2c[nH]c3ccccc23)NC(=O)[C@H](CC(=O)O)NC(=O)[C@H](Cc2cccc(C#N)c2)NC(=O)[C@H](CN)NC(=O)CSC[C@@H](C(=O)N[C@@H](C)C(N)=O)NC(=O)[C@H]([C@@H](C)O)NC(=O)[C@H](C(C)C)NC1=O` [Compound 1432] ({CH2CO}-[Dap][Phe(3-CN)]DWV[Bip]H[NMeA][dL][Dab]LVTCA-NH2; thioether N-14), the figure is 0.05 µM; as for `Cc1cccc(C[C@@H]2NC(=O)[C@H](CC(=O)O)NC(=O)[C@H](Cc3ccc(O)cc3)NC(=O)[C@H](CC(N)=O)NC(=O)CSC[C@@H](C(=O)N[C@@H](CCN)C(N)=O)NC(=O)[C@H]([C@@H](C)O)NC(=O)[C@H](C(C)C)NC(=O)[C@H](CC3CCCCC3)NC(=O)[C@H](CCN)NC(=O)[C@@H](CC(C)C)NC(=O)[C@H](C)N(C)C(=O)[C@H](CCCNC(N)=O)NC(=O)[C@H](Cc3ccc(-c4ccccc4)cc3)NC(=O)[C@H](C(C)(C)O)NC2=O)c1` [Compound 1703] ({CH2CO}-NYD[Phe(3-Me)][Val(3-OH)][Bip][Cit][NMeA][dL][Dab][Cha]VTC[Dab]-NH2; thioether N-14), 0.02 µM. Regarding `Cc1cccc(C[C@@H]2NC(=O)[C@H](CC(=O)O)NC(=O)[C@H](Cc3ccc(C(=O)O)cc3)NC(=O)[C@H](Cc3ccncc3)NC(=O)CSC[C@@H](C(=O)N[C@@H](C)C(N)=O)NC(=O)[C@H]([C@@H](C)O)NC(=O)[C@H](C(C)C)NC(=O)[C@H](CC(C)C)NC(=O)[C@H](CCN)NC(=O)[C@@H](CC(C)C)NC(=O)[C@H](C)N(C)C(=O)[C@H](C(C)C)NC(=O)[C@H](Cc3ccc(-c4ccccc4)cc3)NC(=O)[C@H](C(C)C)NC2=O)c1` [Compound 1420] ({CH2CO}-[4Pal][Phe(4-COOH)]D[Phe(3-Me)]V[Bip]V[NMeA][dL][Dab]LVTCA-NH2; thioether N-14), the IC50 was 0.01 µM. As to `CCC[C@@H]1NC(=O)[C@H](C)N(C)C(=O)[C@H](C(C)C)NC(=O)[C@H](Cc2ccc(-c3ccccc3)cc2)NC(=O)[C@H](CC(C)C)NC(=O)[C@H](Cc2c[nH]c3ccccc23)NC(=O)[C@H](CC(=O)O)NC(=O)[C@H](Cc2ccc(O)cc2)NC(=O)[C@H](Cc2ccccc2)NC(=O)CSC[C@@H](C(=O)NCC(N)=O)NC(=O)[C@H](CO)NC(=O)[C@H](C(C)C)NC(=O)[C@H](CC(C)C)NC(=O)[C@H](CC(N)=O)NC1=O` [Compound 1803] ({CH2CO}-FYDWL[Bip]V[NMeA][Nva]NLVSCG-NH2; thioether N-14), the IC50 came to 0.2 µM. Regarding `CC(C)C[C@@H]1NC(=O)[C@H](Cc2c[nH]c3ccccc23)NC(=O)[C@H](CC(=O)O)NC(=O)[C@H](Cc2ccc(O)cc2)NC(=O)[C@H](Cc2ccccc2)NC(=O)CSC[C@@H](C(=O)N[C@@H](C)C(N)=O)NC(=O)[C@H](CO)NC(=O)[C@H](C(C)C)NC(=O)[C@H](CC(C)C)NC(=O)[C@H](CC(N)=O)NC(=O)[C@@H](C)NC(=O)[C@H](C)N(C)C(=O)[C@H](C(C)C)NC(=O)[C@H](Cc2ccc(-c3ccccc3)cc2)NC1=O` [Compound 1727] ({CH2CO}-FYDWL[Bip]V[NMeA][dA]NLVSCA-NH2; thioether N-14), the IC50 was 0.01 µM. On to `Cc1cccc(C[C@@H]2NC(=O)[C@H](CC(=O)O)NC(=O)[C@H](Cc3ccc(OCC(=O)O)cc3)NC(=O)[C@H](Cc3ccc(OCC(=O)O)cc3)NC(=O)CSC[C@@H](C(=O)N[C@@H](C)C(N)=O)NC(=O)[C@H](CO)NC(=O)[C@H](Cc3ccccc3)NC(=O)[C@H](CC(C)C)NC(=O)[C@H](CC(N)=O)NC(=O)[C@@H](CC(C)C)NC(=O)[C@H](C)N(C)C(=O)[C@H](Cc3ccccc3)NC(=O)[C@H](Cc3ccc(-c4ccccc4)cc3)NC(=O)[C@H](CC(C)C)NC2=O)c1` [Compound 1587] ({CH2CO}-Y(Carboxymethyl)Y(Carboxymethyl)D[Phe(3-Me)]L[Bip]F[NMeA][dL]NLFSCA-NH2; thioether N-14), for which the IC50 was 0.7 µM.

For `CCC(C)[C@@H]1NC(=O)[C@H](Cc2ccc(-c3ccccc3)cc2)NC(=O)[C@H](C(C)C)NC(=O)[C@H](Cc2cccc(C)c2)NC(=O)[C@H](CC(=O)O)NC(=O)[C@H](Cc2cccc(C)c2)NC(=O)[C@H](Cc2ccncc2)NC(=O)CSC[C@@H](C(=O)N[C@@H](CO)C(=O)O)NC(=O)[C@H](CO)NC(=O)[C@H](C(C)C)NC(=O)[C@H](CC2CCCCC2)NC(=O)[C@H](CCN)NC(=O)[C@@H](CC(C)C)NC(=O)[C@H](C)N(C)C1=O` (stereo partly drawn) [Compound 2235] ({CH2CO}-[4Pal][Phe(3-Me)]D[Phe(3-Me)]V[Bip][Ile(3ξ)][NMeA][dL][Dab][Cha]VSCS-OH; thioether N-14), the IC50 amounted to 0.3 µM. As for `CC(C)C[C@@H]1NC(=O)[C@H](CCCNC(=N)N)NC(=O)C(C)(C)NC(=O)[C@H](C)N(C)C(=O)[C@H](CCCNC(=N)N)NC(=O)[C@H](Cc2ccc(-c3ccccc3)cc2)NC(=O)[C@H](C(C)C)NC(=O)[C@H](Cc2c[nH]c3ccccc23)NC(=O)[C@H](CC(=O)O)NC(=O)[C@H](Cc2ccc(O)cc2)NC(=O)[C@H](Cc2ccccc2)NC(=O)CSC[C@@H](C(=O)NCC(N)=O)NC(=O)[C@H](CO)NC(=O)[C@H](C(C)C)NC1=O` [Compound 1013] ({CH2CO}-FYDWV[Bip]R[NMeA][Aib]RLVSCG-NH2; thioether N-14), the IC50 amounted to 0.16 µM. Take `CC(C)C[C@@H]1NC(=O)[C@H](CCCNC(=N)N)NC(=O)[C@H](Cc2csc3ccccc23)NC(=O)[C@H](C)N(C)C(=O)[C@H](CCCNC(=N)N)NC(=O)[C@H](Cc2ccc(-c3ccccc3)cc2)NC(=O)[C@H](C(C)C)NC(=O)[C@H](Cc2c[nH]c3ccccc23)NC(=O)[C@H](CC(=O)O)NC(=O)[C@H](Cc2ccc(O)cc2)NC(=O)[C@H](Cc2cnc[nH]2)NC(=O)CSC[C@@H](C(=O)N[C@@H](C)C(N)=O)NC(=O)[C@H](CO)NC(=O)[C@H](C(C)C)NC1=O` [Compound 1040] ({CH2CO}-HYDWV[Bip]R[NMeA][Bta]RLVSCA-NH2; thioether N-14): the concentration for half-maximal inhibition (IC50) is 0.17 µM. As for `CC(C)C[C@@H]1NC(=O)[C@H](CCN)NC(=O)[C@@H](CC(C)C)NC(=O)[C@H](C)N(C)C(=O)[C@H](CCCNC(=N)N)NC(=O)[C@H](Cc2ccc(-c3ccccc3)cc2)NC(=O)[C@H](C(C)C)NC(=O)[C@H](Cc2c[nH]c3ccccc23)NC(=O)[C@H](CC(=O)O)NC(=O)[C@H](Cc2ccc(OCC(=O)O)cc2)NC(=O)[C@H](Cc2cccnc2)NC(=O)CSC[C@@H](C(=O)N[C@@H](C)C(N)=O)NC(=O)[C@H]([C@@H](C)O)NC(=O)[C@H](C(C)C)NC1=O` [Compound 1158] ({CH2CO}-[3Pal]Y(Carboxymethyl)DWV[Bip]R[NMeA][dL][Dab]LVTCA-NH2; thioether N-14), the IC50 turned out to be 0.03 µM. As for `Cc1cccc(C[C@@H]2NC(=O)[C@H](CC(=O)O)NC(=O)[C@H](Cc3ccc(OCC(=O)O)cc3)NC(=O)[C@H](CN)NC(=O)CSC[C@@H](C(N)=O)NC(=O)[C@H](CO)NC(=O)[C@H](C(C)C)NC(=O)[C@H](CC(C)C)NC(=O)[C@H](CC(N)=O)NC(=O)[C@@H](CC(C)C)NC(=O)[C@H](C)N(C)C(=O)[C@H](CCCNC(N)=O)NC(=O)[C@H](Cc3ccc(-c4ccccc4)cc3)NC(=O)[C@H](CC(C)C)NC2=O)c1` [Compound 1644] ({CH2CO}-[Dap]Y(Carboxymethyl)D[Phe(3-Me)]L[Bip][Cit][NMeA][dL]NLVSC-NH2; thioether N-14), the figure is 0.06 µM. As for `CC(C)C[C@@H]1NC(=O)[C@H](CCCNC(=N)N)NC(=O)[C@@H](CC(C)C)NC(=O)[C@H](C)N(C)C(=O)[C@H](CCCNC(=N)N)NC(=O)[C@H](Cc2ccc(-c3ccccc3)cc2)NC(=O)[C@H](C(C)C)NC(=O)[C@H](Cc2c[nH]c3ccccc23)NC(=O)[C@H](CC(=O)O)NC(=O)[C@H](Cc2ccc(O)cc2)NC(=O)[C@H](Cc2cccnc2)NC(=O)CSC[C@@H](C(=O)N[C@@H](C)C(N)=O)NC(=O)[C@H](CO)NC(=O)[C@H](C(C)C)NC1=O` [Compound 1036] ({CH2CO}-[3Pal]YDWV[Bip]R[NMeA][dL]RLVSCA-NH2; thioether N-14), the figure is 0.05 µM; as for `CC(C)C[C@@H]1NC(=O)[C@H](CCN)NC(=O)[C@@H](CC(C)C)NC(=O)[C@H]2CCCCN2C(=O)[C@H](C(C)C)NC(=O)[C@H](Cc2ccc(-c3ccccc3)cc2)NC(=O)[C@H](C(C)C)NC(=O)[C@H](Cc2c[nH]c3ccccc23)NC(=O)[C@H](CC(=O)O)NC(=O)[C@H](Cc2ccc(O)cc2)NC(=O)[C@H](CC(N)=O)NC(=O)CSC[C@@H](C(=O)N[C@@H](C)C(N)=O)NC(=O)[C@H]([C@@H](C)O)NC(=O)[C@H](C(C)C)NC1=O` [Compound 1268] ({CH2CO}-NYDWV[Bip]V[dPip][dL][Dab]LVTCA-NH2; thioether N-14), 0.11 µM.

As for `CCC(C)[C@@H]1NC(=O)[C@H](Cc2ccc(-c3ccccc3)cc2)NC(=O)[C@H](C(C)C)NC(=O)[C@H](Cc2c[nH]c3ccccc23)NC(=O)[C@H](CC(=O)O)NC(=O)[C@H](Cc2ccc(O)cc2)NC(=O)[C@H](Cc2ccsc2)NC(=O)CSC[C@@H](C(=O)NCCCN)NC(=O)[C@H](C(C)O)NC(=O)[C@H](C(C)(C)O)NC(=O)[C@H](CC2CCCCC2)NC(=O)[C@H](CC(N)=O)NC(=O)[C@@H](CC(C)C)NC(=O)[C@H](C)N(C)C1=O` (stereo partly drawn) [Compound 2247] ({CH2CO}-[3Thi]YDWV[Bip][Ile(3ξ)][NMeA][dL]N[Cha][Val(3-OH)][Thr(3ξ)]C-{NH(CH2)3NH2}; thioether N-14), the IC50 worked out at 0.06 µM.
